Reference: patent publication US11806393B2, “Flavivirus peptide sequences, epitopes, and methods and uses thereof” (priority 2017, dated 2023)

Columns and labels:
Assay type in all cases: cell-based, mouse
[1] = test system: CD8+ T cells; assay: ICS, DENV2-immune Ifnar-/- HLA-B*0702 mice challenged with ZIKV FSS13025; conditions: day 3 after ZIKV FSS13025 challenge
Procedure: (§1) Two ZIKV strains, MR766 (Uganda, 1947) and FSS13025 (Cambodia, 2010), were obtained from the World Reference Center for Emerging Viruses and Arboviruses (WRCEVA). The mouse-adapted DENV2 strain S221 is a triple-plaque purified clone derived from DENV2 D2S1038. Both ZIKV and DENV2 were amplified in C6/36 mosquito cells, and viral titers were measured using baby hamster kidney (BHK)-21 cell-based focus forming assay (FFA). For epitope screening, 5-week old mice (female or male) were infected retro-orbitally (R.O.) with either 1×102 FFU of ZIKV FSS13025 or ZIKV MR766, or 2×10^4 FFU of DENV2 S221 in 200 μl 10% FBS/PBS. Seven days after infection, CD8^+ T cells were isolated from splenocytes and used for ELISPOT assay, while the splenocytes were directly used for ICS assay. Additionally, 5-week old mice were inoculated I.P. with 2×10^3 FFU of DENV2 S221 for 4 weeks.
Spleens were harvested from virus-infected, mock-immunized, or peptide-immunized mice. 1×10^6 splenocytes were plated in each well of 96-well U-bottom plates and stimulated with individual peptide (10 μg crude peptide or 1 μg pure peptide per well) for 6 hours. Five hours before the end of incubation, Brefeldin A (GolgiPlug; BD Biosciences) and PE-conjugated anti CD107a mAb (clone 1D4B, eBioscience) were added to the cells. Splenocytes stimulated with PMA-ionomycin were used as the positive control, while cells without any stimulation were the negative control. After incubation, cells were first stained with PERCPCY™ 5.5-conjugated anti-CD3 mAb (Clone 145-2C11, TONBO), PE-CY7™-conjugated anti-CD8 mAb (clone 53-67, BD Biosciences), EFLUOR™ 450-conjugated anti-CD44 mAb (clone IM7, eBioscience), and APC eFluor 780-conjugated anti-CD62L mAb (clone Mel-14, eBioscience). Cells were then fixed and permeabilized using CYTOFIX/CYTOPERM™ solution (BD Biosciences), followed by staining with FITC-conjugated anti-IFNγ mAb (clone XMG 1.2, TONBO) and APC-conjugated anti-TNFα mAb (clone MP6-XT22, eBioscience). Samples were run using an LSR™ II (BD Biosciences) and analyzed using FLOWJO™ software X 10.0.7 (Tree Star, Ashland, Oreg.).
The following results are with respect to FIG. 11 to FIG. 11E, where Ifnar^−/− HLA-B*0702 transgenic mice were inoculated I.P. with 2×10^3 FFU of DENV2 strain S221 for 4 weeks. Naive mice (n=5) and DENV2 strain S221-immune mice (n=5) were challenged R.O. with 1×10^4 FU of ZIKV FSS13025 for three days, and the percentages of peptide-specific IFNγ^+ and/or TNFα^+ CD8^+ T cells were detected by ICS (FIG. 11A and FIG. 11B). […] Data were expressed as mean±SEM. *, P<0.05; **, P<0.01; Two-tailed ann-Whitney test. Black “*” indicates ZIKV-specific response while bold “*” represents ZIKV/DENV cross-reactive response. All positive peptides were grouped according the ZIKV specificity of immune response (FIG. 11E). Numbers in parentheses indicate the number of positive peptides in this group.

[2] = test system: CD8+ T cells; assay: IFNγ ELISPOT, DENV2 S221-infected Ifnar-/- HLA-B*0702 transgenic mice; conditions: HLA-B*0702 mice, 7 days after 2×10^4 FFU DENV2 S221
Procedure: as §1
CD8^+ T cells were isolated from splenocytes using magnetic bead positive selection (Miltenyi Biotec, Germany) 7 days after virus infection. 2×10^5 CD8^+ T cells were stimulated with 1×10^5 LPS-blasts loaded with 10 μg of individual peptide in 96-well flat-bottom plates (IMMOBILON™-P; Millipore, Bedford, Mass.) that were coated with anti-IFNγ mAb (clone AN18; Mabtech, Stockholm, Sweden) in triplicate. Concanavalin A (ConA) was used as positive control. After 20 hours of incubation, biotinylated anti-mouse IFNγ mAb (R4-6A2; Mabtech), followed by ABC peroxidase (Vector Laboratories, Burlingame, Calif., USA) and then 3-amino-9-ethylcarbazole (Sigma-Aldrich, St. Louis, Mo., USA) were added into the wells. […] A peptide inducing a magnitude of >500 SFCs/10^6 CD8^+ T cells was considered as an immunodominant peptide.
(§2) The following results are with respect to FIG. 14A and FIG. 14B, where Ifnar^−/− HLA-B*0702 transgenic mice were infected R.O. with 2×10^4 FFU of DENV2 strain S221 for 7 days. CD8^+ T cells isolated from splenocytes were stimulated with each of the 37 ZIKV epitopes identified via IFNγELISPOT to perform (FIG. 14A) IFNγELISPOT and (FIG. 14B) ICS assay. Data represent the average of two independent IFNγELISPOT experiments and two independent ICS experiments (n=7 mice) and are expressed as mean±SEM. Dotted line corresponds to the cutoff value. *, P<0.05.

[3] = test system: CD8+ T cells; assay: IFNγ ICS, DENV2 S221-infected Ifnar-/- HLA-B*0702 transgenic mice; conditions: HLA-B*0702 mice; for % IFNγ+ CD8+ T cells, S221: 7 days after DENV2 S221, ICS; for ZIKV/DENV cross-reactivity in DENV2-infected mice (IFNγ ELISPOT and IFNγ ICS): DENV2 S221, 7 days
Procedure: as §1
(§3) Spleens were harvested from virus-infected, mock-immunized, or peptide-immunized mice. 1×10^6 splenocytes were plated in each well of 96-well U-bottom plates and stimulated with individual peptide (10 μg crude peptide or 1 μg pure peptide per well) for 6 hours. Five hours before the end of incubation, Brefeldin A (GolgiPlug; BD Biosciences) and PE-conjugated anti CD107a mAb (clone 1D4B, eBioscience) were added to the cells. Splenocytes stimulated with PMA-ionomycin were used as the positive control, while cells without any stimulation were the negative control. […] Samples were run using an LSR™ II (BD Biosciences) and analyzed using FLOWJO™ software X 10.0.7 (Tree Star, Ashland, Oreg.).
as §2

[4] = test system: CD3+CD8+ T cells; assay: IFNγ ICS, ZIKV-infected Ifnar-/- HLA-B*0702 transgenic mice; conditions: for % IFNγ+ CD8+ T cells, FSS13025 / % IFNγ+ CD8+ T cells, MR766: HLA-B*0702 mice; for % IFNγ+ CD8+ T cells, FSS13025: 7 days after ZIKV FSS13025, ICS; for % IFNγ+ CD8+ T cells, MR766: 7 days after ZIKV MR766, ICS; for simultaneous IFNγ and TNFα production by peptide-stimulated CD8+ T cells: ZIKV MR766-infected mice
Procedure: as §1, §3
Data represent the average of two independent experiments and are expressed as mean±SEM. *, P<0.05; **, P<0.01; Two-tailed Mann-Whitney test. P/I denotes PMA/ionomycin.

Sequence	IFNγ and TNFα double-positive epitope-specific CD8+ T cells [1]	percentage of epitope-specific IFNγ-producing CD8+ T cells [1] [%]	SFC/10^6 CD8+ T cells, S221 [2] [SFC/10^6 CD8+ T cells]	% IFNγ+ CD8+ T cells, S221 [3]	ZIKV/DENV cross-reactivity in DENV2-infected mice (IFNγ ELISPOT and IFNγ ICS) [3]	% IFNγ+ CD8+ T cells, FSS13025 [4]	% IFNγ+ CD8+ T cells, MR766 [4]	simultaneous IFNγ and TNFα production by peptide-stimulated CD8+ T cells [4]
KPRWMDARV [FSS/MR-NS3574-582]	double-positive with expression of both IFNγ and TNFα	2.61±1.19	350	(0.63%)	positive in both IFNγ ELISPOT and IFNγICS assays	(0.79%)	(1.9%)	stimulated simultaneous production of IFNγ and TNFα
RPALLVSFIF [FSS/MR-NS2A75-84]	double-positive with expression of both IFNγ and TNFα	0.44±0.24	88	(0.58%)	positive in both IFNγ ELISPOT and IFNγICS assays	(0.53%)	(2.04%)	stimulated simultaneous production of IFNγ and TNFα
